Reference: patent US20210137886A1, “INHIBITORS OF METALLO-BETA-LACTAMASES” (Oxford University Innovation Limited, priority 2017, published 2021)
In brackets after ≈: the same amount, converted by molar mass.

Legend:
E. coli VIM-1 = assay: Meropenem MIC, CLSI broth or agar microdilution, strain entry 3; assay type: cell-based; conditions: for Change in MIC value of meropenem: strain entry 3, E. coli VIM-1
Text: (§1) In each case DMSO was used to dissolve inhibitors.

[1] = system: Klebsiella pneumoniae NDM-1; assay: Meropenem MIC, CLSI broth or agar microdilution, strain entry 6; assay type: cell-based; conditions: for Change in MIC value of meropenem: strain entry 6, Klebsiella pneumoniae NDM-1
Text: as §1

[2] = system: Pseudomonas aeruginosa VIM-2; assay: Meropenem MIC, CLSI broth or agar microdilution, strain entry 5; assay type: cell-based; conditions: for Change in MIC value of meropenem: strain entry 5, Pseudomonas aeruginosa VIM-2
Text: as §1

[3] = target: NDM-1 (New Delhi metallo-β-lactamase-1) (Klebsiella pneumoniae, UniProt C7C422); assay: Metallo-β-lactamase enzyme inhibition, standard assay protocol
[4] = system: Klebsiella pneumoniae NDM-1 + DHA + CTX − M-15; assay: Meropenem MIC, CLSI broth or agar microdilution, strain entry 7; assay type: cell-based
[5] = system: Klebsiella pneumoniae VIM-1; assay: Meropenem MIC, CLSI broth or agar microdilution, strain entry 4; assay type: cell-based
[6] = target: VIM-1 (Veronese metallo-β-lactamase-1) (Pseudomonas aeruginosa, UniProt A0A0F7KYQ8); assay: Metallo-β-lactamase enzyme inhibition, standard assay protocol
[7] = target: VIM-2 (Veronese metallo-β-lactamase-2) (Escherichia coli, UniProt Q5U7L7); assay: as above
E. coli IMP-4 = assay: Meropenem MIC, CLSI broth or agar microdilution, strain entry 2; assay type: cell-based
[8] = system: Klebsiella pneumoniae IMP-4; assay: Meropenem MIC, CLSI broth or agar microdilution, strain entry 1; assay type: cell-based
IMP-1 (Imipenemase-1) = IMP-1 (Imipenemase-1) (Serratia marcescens, UniProt P52699); assay: Metallo-β-lactamase enzyme inhibition, standard assay protocol
Sequence of IMP-1 (Imipenemase-1) (P52699 19-246, looked up, species assumed): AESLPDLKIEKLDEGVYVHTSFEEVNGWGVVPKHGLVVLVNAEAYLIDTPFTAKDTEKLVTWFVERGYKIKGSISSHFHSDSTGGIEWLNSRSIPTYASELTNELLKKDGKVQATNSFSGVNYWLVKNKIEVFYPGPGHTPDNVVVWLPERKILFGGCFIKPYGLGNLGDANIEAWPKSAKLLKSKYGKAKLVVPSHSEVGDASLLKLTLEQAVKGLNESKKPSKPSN

Sequence of NDM-1 (New Delhi metallo-β-lactamase-1) (C7C422 29-270, looked up, species assumed): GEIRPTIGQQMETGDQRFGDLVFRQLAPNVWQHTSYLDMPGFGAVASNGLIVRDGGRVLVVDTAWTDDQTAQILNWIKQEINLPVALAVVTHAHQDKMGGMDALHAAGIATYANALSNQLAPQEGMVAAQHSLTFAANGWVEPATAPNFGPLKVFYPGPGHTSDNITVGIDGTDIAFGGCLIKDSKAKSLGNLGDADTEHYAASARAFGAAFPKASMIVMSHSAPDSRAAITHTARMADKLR

SMILES | IC50 [3] [nM] | Change in MIC value of meropenem ([4]; 2 mg/L inhibitor) [log2 difference] | Change in MIC value of meropenem ([4]; 4 mg/L inhibitor) [log2 difference] | Change in MIC value of meropenem ([4]; 8 mg/L inhibitor) [log2 difference] | Change in MIC value of meropenem (E. coli VIM-1; 2 mg/L inhibitor) [log2 difference] | Change in MIC value of meropenem (E. coli VIM-1; 4 mg/L inhibitor) [log2 difference] | Change in MIC value of meropenem (E. coli VIM-1; 8 mg/L inhibitor) [log2 difference] | Change in MIC value of meropenem ([5]; 2 mg/L inhibitor) [log2 difference] | Change in MIC value of meropenem ([5]; 4 mg/L inhibitor) [log2 difference] | Change in MIC value of meropenem ([5]; 8 mg/L inhibitor) [log2 difference] | IC50 [6] [nM] | IC50 [7] [nM] | Change in MIC value of meropenem (E. coli IMP-4; 2 mg/L inhibitor) [log2 difference] | Change in MIC value of meropenem (E. coli IMP-4; 4 mg/L inhibitor) [log2 difference] | Change in MIC value of meropenem (E. coli IMP-4; 8 mg/L inhibitor) [log2 difference] | Change in MIC value of meropenem ([1]; 2 mg/L inhibitor) [log2 difference] | Change in MIC value of meropenem ([1]; 4 mg/L inhibitor) [log2 difference] | Change in MIC value of meropenem ([1]; 8 mg/L inhibitor) [log2 difference] | Change in MIC value of meropenem ([8]; 2 mg/L inhibitor) [log2 difference] | IC50 (IMP-1 (Imipenemase-1)) [nM] | further results
C[C@@H](O)[C@H]1C(=O)N2C(C(=O)O)=C(S[C@@H]3CN[C@H](C(=O)N(C)C)C3)[C@H](C)[C@H]12 [meropenem, reference compound] | – | – | – | – | – | – | – | – | – | – | – | – | – | – | – | – | – | – | – | – | MIC (E. coli VIM-1; Escherichia coli, VIM1, read-out: MER MIC): 0.25 µg/mL (≈ 0.652 µM); MIC ([1]; Klebsiella pneumoniae, NDM1, read-out: MER MIC): > 128 µg/mL; MIC ([2]; Pseudomonas aeruginosa, VIM2, read-out: MER MIC): 32 µg/mL (≈ 83.4 µM)
CC(=O)Nc1cccc(-c2c(C(=O)O)[nH]c3c(Br)csc23)c1 [Example 9, 6-(3-acetamidophenyl)-3-bromo-4H-thieno[3,2-b]pyrrole-5-carboxylic acid] | 316 | – | – | – | – | – | – | – | – | – | 1580 | 50.1 | – | – | – | – | – | – | – | 12600 | –
O=C(O)c1cc2scc(C3CC3)c2[nH]1 [Example 8, 3-cyclopropyl-4H-thieno[3,2-b]pyrrole-5-carboxylic acid] | 126000 | – | – | – | – | – | – | – | – | – | > 251000 | 39800 | – | – | – | – | – | – | – | > 251000 | –
O=C(O)c1[nH]c2c(-c3ccc(F)cc3)csc2c1-c1ccc(F)cc1 [Example 5, 3,6-Bis(4-fluorophenyl)-4H-thieno-[3,2-b]pyrrole-5-carboxylic acid] | 12600 | – | – | – | – | – | – | – | – | – | > 39800 | 10000 | – | – | – | – | – | – | – | 2510 | –
O=C(O)c1[nH]c2c(Br)csc2c1-c1ccc(F)cc1 [Example 4, 3-Bromo-6-(4-fluorophenyl)-4H-thieno-[3,2-b]pyrrole-5-carboxylic acid] | 200 | – | – | – | – | – | – | – | – | – | 5010 | 316 | – | – | – | – | – | – | – | 2510 | –
CC(C)c1csc2cc(C(=O)O)[nH]c12 [Example 7, 3-isopropyl-4H-thieno[3,2-b]pyrrole-5-carboxylic acid] | 39800 | – | – | – | – | – | – | – | – | – | > 251000 | 20000 | – | – | – | – | – | – | – | > 63100 | –
O=C(O)c1cc2scc(Br)c2[nH]1 [Example 3, 3-bromo-4H-thieno[3,2-b]pyrrole-5-carboxylic acid] | 126000 | – | – | – | – | – | – | – | – | – | > 251000 | 15800 | – | – | – | – | – | – | – | > 251000 | –
CS(=O)(=O)Cc1ccc(-c2c(C(=O)O)[nH]c3c(C4CC4)csc23)cc1Cl [Example 18, 6-(3-chloro-4-((methylsulfonyl)methyl)phenyl)-3-cyclopropyl-4H-thieno[3,2-b]pyrrole-5-carboxylic acid] | – | −2 | −2 | −2 | −1 | −1 | −1 | −3 | −2 | −3 | – | – | 0 | 0 | 0 | 0 | 0 | 0 | 0 | – | Change in MIC value of meropenem ([8]; 4 mg/L inhibitor): 0 log2 difference; Change in MIC value of meropenem ([8]; 8 mg/L inhibitor): 0 log2 difference; Change in MIC value of meropenem ([2]; 2 mg/L inhibitor): 0 log2 difference; Change in MIC value of meropenem ([2]; 4 mg/L inhibitor): 0 log2 difference; Change in MIC value of meropenem ([2]; 8 mg/L inhibitor): 0 log2 difference

The next lines start with results.

IC50 [3] [nM] | Change in MIC value of meropenem ([4]; 2 mg/L inhibitor) [log2 difference] | Change in MIC value of meropenem ([4]; 4 mg/L inhibitor) [log2 difference] | Change in MIC value of meropenem ([4]; 8 mg/L inhibitor) [log2 difference] | Change in MIC value of meropenem (E. coli VIM-1; 2 mg/L inhibitor) [log2 difference] | Change in MIC value of meropenem (E. coli VIM-1; 4 mg/L inhibitor) [log2 difference] | Change in MIC value of meropenem (E. coli VIM-1; 8 mg/L inhibitor) [log2 difference] | Change in MIC value of meropenem ([5]; 2 mg/L inhibitor) [log2 difference] | Change in MIC value of meropenem ([5]; 4 mg/L inhibitor) [log2 difference] | Change in MIC value of meropenem ([5]; 8 mg/L inhibitor) [log2 difference] | IC50 [6] [nM] | IC50 [7] [nM] | Change in MIC value of meropenem (E. coli IMP-4; 2 mg/L inhibitor) [log2 difference] | Change in MIC value of meropenem (E. coli IMP-4; 4 mg/L inhibitor) [log2 difference] | Change in MIC value of meropenem (E. coli IMP-4; 8 mg/L inhibitor) [log2 difference] | Change in MIC value of meropenem ([1]; 2 mg/L inhibitor) [log2 difference] | Change in MIC value of meropenem ([1]; 4 mg/L inhibitor) [log2 difference] | Change in MIC value of meropenem ([1]; 8 mg/L inhibitor) [log2 difference] | Change in MIC value of meropenem ([8]; 2 mg/L inhibitor) [log2 difference] | IC50 (IMP-1 (Imipenemase-1)) [nM] | SMILES | further results
39.8 | −1 | −1 | −1 | −1 | 0 | −1 | −1 | −1 | 0 | 631 | 126 | −2 | −2 | −2 | −1 | −1 | −1 | −2 | 501 | C=C(C)c1csc2c(-c3ccc(F)cc3)c(C(=O)O)[nH]c12 [Example 6, 3-isopropenyl-6-(4-fluorophenyl)-4H-thieno-[3,2-b]pyrrole-5-carboxylic acid] | Change in MIC value of meropenem ([8]; 4 mg/L inhibitor): −2 log2 difference; Change in MIC value of meropenem ([8]; 8 mg/L inhibitor): −2 log2 difference; Change in MIC value of meropenem ([2]; 2 mg/L inhibitor): 0 log2 difference; Change in MIC value of meropenem ([2]; 4 mg/L inhibitor): 0 log2 difference; Change in MIC value of meropenem ([2]; 8 mg/L inhibitor): 0 log2 difference
50.1 | −1 | −2 | −3 | −1 | −1 | −1 | −2 | −2 | −2 | 631 | 39.8 | −2 | −2 | −3 | −1 | −1 | −2 | −2 | 50.1 | CC(C)c1csc2c(-c3ccc(F)cc3)c(C(=O)O)[nH]c12 [Example 12, 3-isopropyl-6-(4-fluorophenyl)-4H-thieno-[3,2-b]pyrrole-5-carboxylic acid] | Change in MIC value of meropenem ([8]; 4 mg/L inhibitor): −2 log2 difference; Change in MIC value of meropenem ([8]; 8 mg/L inhibitor): −2 log2 difference; Change in MIC value of meropenem ([2]; 2 mg/L inhibitor): 0 log2 difference; Change in MIC value of meropenem ([2]; 4 mg/L inhibitor): 0 log2 difference; Change in MIC value of meropenem ([2]; 8 mg/L inhibitor): 0 log2 difference
63.1 | – | – | – | – | – | – | – | – | – | 631 | 39.8 | – | – | – | – | – | – | – | 1000 | O=C(O)c1[nH]c2c(Br)csc2c1-c1cc(Cl)cc(Cl)c1 [Example 1, 3-bromo-6-(3,5-dichlorophenyl)-4H-thieno[3,2-b]pyrrole-5-carboxylic acid] | –
15.8 | −1 | −2 | −3 | −1 | −1 | −1 | −2 | −2 | −2 | 126 | 5.01 | −2 | −2 | −3 | −1 | −1 | −2 | −2 | 79.4 | O=C(O)c1[nH]c2c(C3CC3)csc2c1-c1cc(Cl)cc(Cl)c1 [Example 2, 3-cyclopropyl-6-(3,5-dichlorophenyl)-4H-thieno[3,2-b]pyrrole-5-carboxylic acid] | Change in MIC value of meropenem ([8]; 4 mg/L inhibitor): −2 log2 difference; Change in MIC value of meropenem ([8]; 8 mg/L inhibitor): −2 log2 difference; Change in MIC value of meropenem ([2]; 2 mg/L inhibitor): 0 log2 difference; Change in MIC value of meropenem ([2]; 4 mg/L inhibitor): 0 log2 difference; Change in MIC value of meropenem ([2]; 8 mg/L inhibitor): 0 log2 difference
